Key:
[1] = target: T1, Androgen receptor (Homo sapiens) (UniProt P10275); settings: CV-1
T1 sequence (whole entry): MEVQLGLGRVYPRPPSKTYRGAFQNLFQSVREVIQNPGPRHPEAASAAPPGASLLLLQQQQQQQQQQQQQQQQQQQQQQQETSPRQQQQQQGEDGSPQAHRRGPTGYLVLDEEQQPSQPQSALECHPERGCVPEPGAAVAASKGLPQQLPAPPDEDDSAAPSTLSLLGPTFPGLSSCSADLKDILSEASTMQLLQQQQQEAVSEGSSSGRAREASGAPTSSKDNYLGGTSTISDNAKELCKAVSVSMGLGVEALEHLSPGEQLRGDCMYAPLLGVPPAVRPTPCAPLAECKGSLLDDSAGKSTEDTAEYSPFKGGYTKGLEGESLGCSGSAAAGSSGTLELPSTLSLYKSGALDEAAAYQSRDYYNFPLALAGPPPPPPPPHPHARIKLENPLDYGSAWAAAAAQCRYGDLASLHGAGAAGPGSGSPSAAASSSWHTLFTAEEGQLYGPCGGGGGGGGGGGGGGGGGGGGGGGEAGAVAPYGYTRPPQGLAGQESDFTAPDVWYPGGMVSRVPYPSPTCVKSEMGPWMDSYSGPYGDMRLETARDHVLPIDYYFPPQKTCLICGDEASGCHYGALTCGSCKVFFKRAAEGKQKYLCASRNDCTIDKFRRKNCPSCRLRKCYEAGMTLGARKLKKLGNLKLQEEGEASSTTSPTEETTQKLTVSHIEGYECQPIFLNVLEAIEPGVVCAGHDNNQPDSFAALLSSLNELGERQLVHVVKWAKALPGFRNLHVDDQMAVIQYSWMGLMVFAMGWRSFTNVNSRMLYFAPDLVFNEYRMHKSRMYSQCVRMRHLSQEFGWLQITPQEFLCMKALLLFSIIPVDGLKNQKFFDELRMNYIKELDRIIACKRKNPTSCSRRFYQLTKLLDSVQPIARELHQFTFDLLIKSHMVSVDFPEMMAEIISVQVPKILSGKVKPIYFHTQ
Description: Relative stimulatory activity compared to 5-alpha-DHT in CV-1 cells expressing androgen receptor

[2] = system: Rattus norvegicus; assay: Distribution of tissue Radioactivity following Intravenous injection into castrated male rat and 5-alpha-DHT was reported; format: ADME, organism-based; settings: in vivo
[3] = system: Rattus norvegicus; assay: Distribution of tissue Radioactivity following Intravenous injection into castrated male rat prostate/blood; format: ADME, organism-based; settings: other tissue

CC12CC[C@H]3[C@@H]([C@H](I)CC4CC(=O)CCC43C)[C@@H]1CCC2O (stereo partly drawn) was tested, and the RSA [1] was 20, the Biodistribution [2] was 0.94% and the Biodistribution [3] was 1.34%.
